{"source": "ChEMBL document CHEMBL1681726", "about": "“Discovery of orally available tetrahydroquinoline-based glucocorticoid receptor agonists” (Bioorg Med Chem Lett, 2011)", "key": {"Glucocorticoid receptor [1]": {"biological_target": "T1, Glucocorticoid receptor (Homo sapiens, UniProt P04150)", "T1 sequence (P04150 whole entry)": "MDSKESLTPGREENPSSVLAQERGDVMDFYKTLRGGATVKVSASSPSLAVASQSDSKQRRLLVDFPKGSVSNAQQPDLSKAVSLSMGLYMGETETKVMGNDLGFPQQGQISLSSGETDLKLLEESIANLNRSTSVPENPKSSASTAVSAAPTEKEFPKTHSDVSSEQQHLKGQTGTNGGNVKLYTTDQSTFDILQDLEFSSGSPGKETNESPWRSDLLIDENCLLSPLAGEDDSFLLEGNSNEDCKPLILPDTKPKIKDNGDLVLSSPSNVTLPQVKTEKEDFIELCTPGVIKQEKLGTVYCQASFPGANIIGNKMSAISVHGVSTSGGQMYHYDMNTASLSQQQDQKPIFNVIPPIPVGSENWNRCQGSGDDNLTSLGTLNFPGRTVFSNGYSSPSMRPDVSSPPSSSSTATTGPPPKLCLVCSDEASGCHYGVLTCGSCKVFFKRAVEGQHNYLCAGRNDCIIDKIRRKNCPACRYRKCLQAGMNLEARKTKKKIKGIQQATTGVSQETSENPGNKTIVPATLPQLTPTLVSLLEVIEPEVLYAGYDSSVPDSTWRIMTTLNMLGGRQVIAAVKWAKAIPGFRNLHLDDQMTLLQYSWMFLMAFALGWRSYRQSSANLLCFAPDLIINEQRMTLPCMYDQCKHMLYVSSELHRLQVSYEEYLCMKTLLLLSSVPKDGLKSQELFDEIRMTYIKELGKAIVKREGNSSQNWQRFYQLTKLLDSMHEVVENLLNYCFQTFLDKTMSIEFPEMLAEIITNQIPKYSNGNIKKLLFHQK", "experiment": "Agonist activity at human GR expressed in NHDF cells assessed as inhibition of IL-6 production by ELISA relative to Dexamethasone", "format": "functional, cell-based"}, "[2]": {"experiment": "Metabolic stability in human liver microsomes by HPLC-MS/MS", "format": "ADME, Microsome"}, "Androgen receptor": {"biological_target": "T2, Androgen receptor (Homo sapiens, UniProt P10275)", "T2 sequence (P10275 whole entry)": "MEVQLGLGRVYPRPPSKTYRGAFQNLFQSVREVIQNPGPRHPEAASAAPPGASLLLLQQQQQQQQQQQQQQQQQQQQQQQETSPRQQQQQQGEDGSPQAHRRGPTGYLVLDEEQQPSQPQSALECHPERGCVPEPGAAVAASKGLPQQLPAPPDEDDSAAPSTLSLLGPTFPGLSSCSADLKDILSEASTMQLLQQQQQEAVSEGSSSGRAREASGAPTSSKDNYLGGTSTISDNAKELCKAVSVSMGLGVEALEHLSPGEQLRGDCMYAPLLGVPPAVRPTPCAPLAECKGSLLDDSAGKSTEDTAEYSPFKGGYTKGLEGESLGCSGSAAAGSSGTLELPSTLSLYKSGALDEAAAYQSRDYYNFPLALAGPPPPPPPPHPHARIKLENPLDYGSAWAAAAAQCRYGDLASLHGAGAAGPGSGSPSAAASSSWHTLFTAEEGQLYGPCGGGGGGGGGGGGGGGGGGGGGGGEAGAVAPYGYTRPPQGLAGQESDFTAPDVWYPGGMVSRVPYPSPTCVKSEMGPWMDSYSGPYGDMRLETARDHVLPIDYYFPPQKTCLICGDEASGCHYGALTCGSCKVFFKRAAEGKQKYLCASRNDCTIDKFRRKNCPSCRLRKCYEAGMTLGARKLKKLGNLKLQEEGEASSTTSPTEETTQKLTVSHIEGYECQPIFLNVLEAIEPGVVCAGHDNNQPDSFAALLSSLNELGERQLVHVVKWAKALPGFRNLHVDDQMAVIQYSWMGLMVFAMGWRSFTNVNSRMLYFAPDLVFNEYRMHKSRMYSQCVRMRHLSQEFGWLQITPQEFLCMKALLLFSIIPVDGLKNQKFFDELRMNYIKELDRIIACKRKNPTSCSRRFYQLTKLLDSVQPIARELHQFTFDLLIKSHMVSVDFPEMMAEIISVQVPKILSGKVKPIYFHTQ", "experiment": "Binding affinity to AR"}, "[3]": {"experiment": "Cmax in Sprague-Dawley rat at 30 mg/kg, po", "format": "ADME, organism-based", "set-up": "dose 30 mg/kg, route oral", "conditions": "in vivo"}, "[4]": {"experiment": "Selectivity ratio of Ki for GR to Ki for AR"}, "[5]": {"experiment": "Selectivity ratio of Ki for GR to Ki for PR"}, "[6]": {"experiment": "Apparent half life in Sprague-Dawley rat at 30 mg/kg, po", "format": "ADME, organism-based", "set-up": "dose 30 mg/kg, route oral", "conditions": "in vivo"}, "[7]": {"experiment": "Selectivity ratio of Ki for GR to Ki for MR"}, "Glucocorticoid receptor [8]": {"biological_target": "T1, Glucocorticoid receptor", "experiment": "Agonist activity at GR expressed in IL-1beta- and TNFalpha-stimulated HepG2 cells assessed as inhibition of NFKB- or AP-1 mediated E-selectin transcription by luciferase reporter gene assay relative to Dexamethasone", "format": "functional, cell-based"}, "Glucocorticoid receptor [9]": {"biological_target": "T1, Glucocorticoid receptor", "experiment": "Agonist activity at GR expressed in african green monkey CV1 cells transfected with luciferase gene linked to MMTV promoter assessed as induction of luciferase transactivation activity relative to Dexamethasone", "format": "functional, cell-based, CV-1"}, "[10]": {"biological_target": "T3, Mineralocorticoid receptor (Homo sapiens, UniProt P08235)", "T3 sequence (P08235 whole entry)": "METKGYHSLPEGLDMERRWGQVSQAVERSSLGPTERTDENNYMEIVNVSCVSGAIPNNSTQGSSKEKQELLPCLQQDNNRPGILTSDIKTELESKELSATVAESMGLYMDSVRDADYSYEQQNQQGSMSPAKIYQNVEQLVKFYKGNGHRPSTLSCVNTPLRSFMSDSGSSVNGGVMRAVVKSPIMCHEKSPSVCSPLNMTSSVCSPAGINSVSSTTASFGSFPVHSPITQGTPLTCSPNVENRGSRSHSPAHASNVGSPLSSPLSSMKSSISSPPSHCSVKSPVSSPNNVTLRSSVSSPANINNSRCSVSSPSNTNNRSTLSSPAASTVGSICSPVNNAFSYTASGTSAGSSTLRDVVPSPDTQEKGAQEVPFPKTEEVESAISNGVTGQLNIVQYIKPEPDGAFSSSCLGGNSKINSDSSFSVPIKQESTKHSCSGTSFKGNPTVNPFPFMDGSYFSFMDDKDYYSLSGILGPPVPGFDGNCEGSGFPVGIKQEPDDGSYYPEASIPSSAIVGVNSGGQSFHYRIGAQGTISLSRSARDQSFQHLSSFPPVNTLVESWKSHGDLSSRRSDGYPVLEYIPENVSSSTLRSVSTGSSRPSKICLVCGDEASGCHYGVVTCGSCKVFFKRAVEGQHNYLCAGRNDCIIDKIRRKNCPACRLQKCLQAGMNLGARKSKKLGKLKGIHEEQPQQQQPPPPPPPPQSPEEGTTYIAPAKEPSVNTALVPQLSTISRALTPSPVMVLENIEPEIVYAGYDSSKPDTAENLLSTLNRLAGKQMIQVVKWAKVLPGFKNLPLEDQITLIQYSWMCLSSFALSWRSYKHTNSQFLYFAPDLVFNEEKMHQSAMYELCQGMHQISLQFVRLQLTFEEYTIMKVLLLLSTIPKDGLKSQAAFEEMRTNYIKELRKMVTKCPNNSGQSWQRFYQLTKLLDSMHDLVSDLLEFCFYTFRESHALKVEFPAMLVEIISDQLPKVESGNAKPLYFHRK", "experiment": "Binding affinity to MR"}}}
{"compound": "C[C@H]1c2c(cc(F)c(-c3cccc4cc[nH]c34)c2F)NC(C)(C)[C@@H]1O", "note": "(racemic)", "values": [{"measurement": "IC50", "setting": "Glucocorticoid receptor [1]", "value": 11, "unit": "nM"}, {"measurement": "half-life", "setting": "[2]", "value": 0.8, "unit": "h"}, {"measurement": "Ki", "setting": "Androgen receptor", "value": 1430, "unit": "nM"}, {"measurement": "Cmax", "setting": "[3]", "value": 3600, "unit": "ng/mL"}, {"measurement": "Ratio Ki", "setting": "[4]", "value": "> 500"}, {"measurement": "Ratio Ki", "setting": "[5]", "value": "> 500"}, {"measurement": "half-life", "setting": "[6]", "value": 3.2, "unit": "h"}, {"measurement": "Ratio Ki", "setting": "[7]", "value": "> 500"}, {"measurement": "IC50", "setting": "Glucocorticoid receptor [8]", "value": 1.5, "unit": "nM"}, {"measurement": "EC50", "setting": "Glucocorticoid receptor [9]", "value": 0.6, "unit": "nM"}, {"measurement": "Ki", "setting": "[10]", "value": 1520, "unit": "nM"}]}
